Earlier results as cited in publication PMC7113672 (Antiviral Research, 2014).

What was measured:
[1] = tested on: influenza A/WSN/1933 (H1N1) virus
[2] = tested on: other cysteine proteases such as the coronaviral main protease, cathepsins B, K, L, and S, and papain
[3] = tested on: MERS-CoV
[4] = tested on: SARS-CoV; settings: in vivo

| SMILES | selectivity index [1] | EC50 ([1]; read-out: EC50, protective effect against influenza A/WSN/1933 (H1N1) virus) [µM] | inhibition of other cysteine proteases [2] | effect of combination on replication of MERS-CoV [3] | EC50 ([3]; read-out: EC50, inhibition of MERS-CoV replication) [µM] | efficacy against SARS-CoV [4] |
| --- | --- | --- | --- | --- | --- | --- |
| Sc1ncnc2nc[nH]c12 [6MP, 6-Mercaptopurine] | 4 | 26.5 | do not inhibit | – | – | – |
| Nc1nc2nc[nH]c2c(=S)[nH]1 [6TG, 6-Thioguanine] | – | – | do not inhibit | – | – | – |
| COc1c(C)c2c(c(O)c1C/C=C(\C)CCC(=O)O)C(=O)OC2 [Mycophenolic acid] | – | – | – | synergistically inhibit | 0.27 | ineffective |
